Reference: patent US8092790B2, “Methods of making formulations to affect insect behavior and/or bird behavior” (Bug Buster, Ltd., priority 2003, dated 2012)
Several values for one entry are separate records, joined by “and”; a condition that tells them apart may be missing. Equal values may be shown once.

Legend:
birds = experiment: Container placed in aircraft hanger; type: in vivo; details: 2.5 gallon HDPE container at least partially filled
[1] = system: fruit flies (Drosophila spp.); experiment: Attraction of fruit flies, sticky trap with treated surface; type: in vivo
Description: An exemplary compound, methyl anthranilate, was combined with fatty acid and used to attract insects, in particular, fruit flies (Drosophila spp.). This exemplary compound will also repel at least some birds. […] An exemplary compound, methyl anthranilate, was combined with fatty acid and applied to a surface (e.g., a treated surface) of a sticky trap and used to attract and to trap insects, in particular, fruit flies (Drosophilia spp.). This exemplary compound will also repel at least some birds.
A trial compared insect attraction for an untreated surface of a sticky trap and with a treated surface of a sticky trap.
For example, grape crushing and/or fermenting may release competitive agents.

[2] = system: striped sunflower head moth larvae; experiment: Exemplary compound applied after exemplary composition, sunflowers; details: in vivo
Description: An exemplary compound, methyl anthranilate, was combined with long chain fatty acids. The exemplary compound, as mixed with the fatty acids, was applied to three fields of maturing sunflowers. Each of the fields had previously been treated with an exemplary composition that included an exemplary compound, methyl anthranilate (approx. 4.5 oz per acre mixed with long chain fatty acids) and an insecticide, in this example, esfenvalerate (approx. 8 oz per acre using the insecticide product ASANA™). Ten flowers were randomly selected from the interior of each field and one-half of the seed heads were sprayed with DEET and one-half sprayed with the exemplary compound at a concentration of approximately 0.00312% methyl anthranilate, which was in a mixture that included long chain fatty acids. Spraying sprayed across the head of each flower. The number of striped sunflower head moth larvae, emerging from the seeds, was recorded.

[3] = system: sunflower seed weevils (Smicronyx spp.); experiment: Comparison to DEET product, drawing weevils out of sunflower heads; type: in vivo
Description: DEET is often used by entomologists in standard procedures to draw sunflower seed weevils (Smicronyx spp.) out of the heads of sunflowers. In this trial, DEET was provided in the commercially available product DEEP WOODS OFF™ repellent (S.C. Johnson and Son's, Racine, Wis.), which has approximately 28.5% active ingredient; 1.5% other isomers and 70% inert ingredients. Forty-two flowers were randomly selected from interiors of three fields. One-half of the flowers were sprayed with the DEET containing repellent while the remaining flowers were sprayed with the exemplary compound at a concentration of approximately 0.00312% methyl anthranilate, which was combined with long chained fatty acids. The number of sunflower weevils was recorded.

ants = experiment: Treatment of ground to form a boundary; details: in vivo
Protocol: An exemplary method includes applying an exemplary compound or composition to the ground to thereby discourage insect traffic or deposition of insect semiochemicals. For example, where an exemplary compound is applied to the ground, the ground is not readily further marked by an insect semiochemical. A trial was performed where an exemplary compound (methyl anthranilate) was applied to the ground to form a boundary.

T. coloratus = details: in vivo; cited from earlier work
Thrips hawaiiensis = details: in vivo; cited from earlier work
adult weevils = experiment: Exemplary compound on sunflowers previously sprayed with esfenvalerate, weevils emerging; type: in vivo
Description: An exemplary compound, methyl anthranilate, was combined with long chain fatty acids. An exemplary method applied the mixture to fifteen maturing sunflowers in the interior of two fields that were previously sprayed with an insecticide, esfenvalerate (e.g., the insecticide product ASANA™). The mixture that included the exemplary compound was applied by spraying the mixture across the head of each flower (e.g., where seeds exist). The number of striped sunflower head moth larvae and weevils, emerging from the seeds, was recorded.

[4] = system: mosquito (Aedes aegyptis); experiment: Mosquito repellency on human subject; type: in vivo
Description: In these trials, DEET was provided in the commercially available product DEEP WOODS OFF™ repellent (S.C. Johnson & Son, Inc., Racine, Wis.), which has approximately 28.5% active ingredient; 1.5% other isomers and 70% inert ingredients.
In a first trial, a human subject was exposed to a mosquito (Aedes aegyptis) rich environment without application of the exemplary compound or DEET. Within less than one minute the subject was covered with the insects. In a second trial, the subject sprayed one unclothed arm with the exemplary compound at a rate of 0.00312% and the other unclothed arm with DEET at a concentration of 0.24%. The subject's head remained untreated. Upon returning to the test area, the subject's head was covered with the insects within one minute. […] In a third trial the subject, after removing the DEET from his/her body, reapplied the exemplary compound to unclothed arms, head and neck before returning to the test area. The subject returned to and remained in the test area for more than one hour without any of the insects landing on his/her arms, hands and head while numerous insects were observed on the clothed portions of his/her anatomy.

[5] = system: corn ear worm (Heliothus zea); experiment: Exemplary compound applied after insecticide, sweet corn; type: in vivo
Description: An exemplary compound, methyl anthranilate, was applied to sweet corn after the crop had been treated with an insecticide (e.g., the pyrethrin insecticide WARRIOR™) to control corn ear worm (Heliothus zea). Prior to application of the exemplary compound, few if any larvae, which typically reside in the developing ear, were observed on the ground around the corn stalks.
After applying the exemplary compound, methyl anthranilate, at a concentration of approximately 4.5 oz.

COC(=O)c1ccccc1N [methyl anthranilate]
bird population in hanger (birds): bird population dwindled
surface guano on aircraft (birds): significant drop in surface guano
attraction of fruit flies ([1]; combined with fatty acid): attracted fruit flies
effectiveness in a competitive environment ([1]; grape crushing and/or fermenting may release competitive agents): may be diminished in a competitive environment
insects on treated surface of sticky trap ([1]; in less than one minute, only a few insects on untreated surface): covered with insects
effectiveness when applied after an exemplary composition [2]: high level of effectiveness
Number of insects, Mean ([3]; Field No. 1): 6.8
Number of insects, Total ([3]; Field No. 1): 68
Number of insects, Mean ([3]; Field No. 2): 24
Number of insects, Total ([3]; Field No. 2): 72
Number of insects ([3]; Field No. 2, per flower, DEET as DEEP WOODS OFF, methyl anthranilate approx. 0.00312% with long chained fatty acids): 23 and 24 and 26
Number of insects, Mean ([3]; Field No. 3): 8.4
Number of insects, Total ([3]; Field No. 3): 67
effectiveness compared with DEET ([3]; approx. 0.00312% methyl anthranilate with long chained fatty acids vs DEET repellent product): generally more effective than DEET
crossing of treated ground boundary (ants): ants did not cross this boundary
attraction of T. coloratus (T. coloratus): are attracted
attraction of Thrips hawaiiensis (Thrips hawaiiensis): are attracted
Number of Adult Weevils, Mean (adult weevils; Field No 2): 1.14
Number of Adult Weevils, Total (adult weevils; Field No 2): 8
Number of Adult Weevils, Mean (adult weevils; Field No. 1): 0.43
Number of Adult Weevils, Total (adult weevils; Field No. 1): 3
effectiveness as mosquito repellent compared with DEET ([4]; at lower concentrations): as effective as DEET
mosquitoes on treated unclothed arm ([4]; second trial, methyl anthranilate 0.00312%, DEET 0.24%, untreated head covered within one minute): No mosquitoes were found
time in test area without insects landing on treated arms, hands and head ([4]; third trial): more than one
insects on the ground around the corn stalks ([5]; approximately 4.5 oz. (127 g) per acre by aircraft, after WARRIOR treatment): a significant number of insects were observed on the ground
worms in the corn ears at harvest ([5]; insecticide (WARRIOR) and methyl anthranilate): did not contain any significant number of worms
